SMILES strings stand for the structures.

One assay relates to ARPE-19 cells. The assay can be described thus: Inhibition of retinal pigment epithelial cell death induced by A2E and blue light. The assay is classed as cell-based, human. On the procedure: A2E accumulated in human retinal pigment epithelial cells is known to induce cytotoxicity by blue light irradiation. Using a human retinal pigment epithelial cell line, the effect of the compound of the present invention on inhibiting cell death by blue light irradiation was measured.
The ARPE-19 cell line was dispensed into a 6-well plate at a concentration of 2×10^4 cells/well and cultured for 24 hours. In order to induce A2E accumulation in the ARPE-19 cell line, cells were treated with A2E three times at a concentration of 25 μM at 48-hour intervals. Twenty-four hours after the last A2E treatment, cells were treated with example 17 compound of the present invention twice at 24-hour intervals at concentrations of 10, 25, and 50 μM, respectively. After an additional 24 hours of culture, blue light (BL, 430 nm, 7500 lux) was irradiated for 30 minutes and cultured for 24 hours. Cell death was observed under a microscope, and the number of living cells was measured using Image J (National Institutes of Health, USA) to calculate the quantitative cell viability.

The test system of assay [1] is A2E-BDP present in human retinal pigment epithelial cells (ARPE-19). The assay can be described thus: Screening of ability to remove A2E-fluorescent labeling substance (A2E-BDP), lysate fluorescence. The assay is classed as cell-based. As to conditions: ARPE-19, 24 h, ARPE-19 loaded with 10 μM A2E-BDP 24 h, test compound 50 μM once, fluorescence ex 485/em 535 nm, read-out: Capacity (%) to remove A2E-BDP at 50 μM. On the procedure: (§1) The human retinal pigment epithelial cell line (ARPE-19) used in the experiment was provided by ATCC (American Type Culture Collection). The ARPE-19 cell line was cultured in DMEM medium containing 10% FBS. After culture, the cells were dispensed into 96-well plates at a concentration of 4×10^3 cells/well and cultured for 24 hours. The ARPE-19 cell line was treated with A2E-fluorescent labeling substance (A2E-BDP) at a concentration of 10 μM for 24 hours to induce the accumulation of A2E-BDP in the ARPE-19 cell line.
(§2) In order to evaluate the intracellular A2E removal ability of the compound of the present invention, an easily detectable A2E-fluorescent labeling substance (A2E-BDP) was used. The ARPE-19 cells prepared by the above method were treated with each test compound at a concentration of 50 μM once, and then cultured for 24 hours. The cells were lysed by adding a cell lysis buffer containing a protease inhibitor (50 mM Tris-chloride, pH 8.0, 150 mM sodium chloride, 1% NP-40, 1% sodium deoxycholate, 1% sodium dodecyl sulfate, and 2 mM ethylenediamine tetraacetic acid) to each 96-well. The prepared cell lysate was transferred to a white 96-well plate, and the fluorescence intensity was measured using a fluorescence microplate reader (VICTOR™ X3, Perkin Elmer, USA) (excitation 485 nm, emission 535 nm).

The subject of another assay is LC3-II. The assay is described as follows: Autophagy activation in ARPE-19 (LC3-II Western, GFP-LC3 puncta). Type of assay: cell-based, human. The note with it: 12 h. Here is the method: ARPE-19 was dispensed into a 6-well plate at a concentration of 1×10^5 cells/well and cultured for 24 hours. Then, cells were treated with example 17 compound of the present invention at concentrations of 10, 25, and 50 μM for 12 hours. Then, a cell lysis buffer containing a protease inhibitor was added to prepare a cell lysate. The LC3-II level was measured by Western immunoblotting using an anti-LC3-II antibody (Cell Signaling Technology, MA, USA). As an internal control, an antibody against β-actin (Cell Signaling Technology) was used and measured by Western immunoblotting in the same manner as above, and is shown in FIG. 6 (upper graph).
Meanwhile, intracellular autophagosome formation was observed as follows. The ARPE-19 cells were transfected with a plasmid expressing GFP-LC3 (Addgene Inc., MA, USA) using Lipofectamine™ 2000 reagent (Invitrogen, Carlsbad, CA, USA). After 48 hours of culture, the cells were treated with example 17 compound of the present invention at a concentration of 25 μM. After additional 12 hours of culture, the cells were fixed using 4% paraformaldehyde for 10 minutes. The cells were then washed three times with PBS every 5 minutes. Finally, the puncta formation of GFP-LC3 was observed using a confocal laser scanning microscope (Nikon, Tokyo, Japan). […]

The subject of assay [2] is IL-1β, IL-6 and CXCL8 mRNA. The assay can be described thus: Inhibition of blue light-induced inflammatory gene expression (real-time PCR). The assay is classed as cell-based, human. As to conditions: A2E and blue light; P<0.05; FIG. 5. Here is the method: ARPE-19 cell lines were seeded in 6-well plates at a concentration of 2×10^4 cells/well and cultured for 24 hours. The process of accumulating A2E in ARPE-19 cell lines, irradiating with blue light, and treating with example 17 compound of the present invention was performed in the same manner as in Experimental Example 5. After 24 hours of irradiating with blue light, total RNA was isolated from ARPE-19 cells using Trizol reagent (Invitrogen), and total RNA was quantified using Nanodrop (Nanodrop, Thermo Scientific). Thereafter, cDNA was synthesized using […] of total RNA, and the cDNA was amplified using the primers described in Table 5 below as a template and a real-time genetic cycler LC480 (Roche) (PCR conditions: denaturation −95° C., 10 seconds; primer binding −60° C., 10 seconds; and extension −72° C., 10 seconds).
At this time, the PCR results for 18S were used as a control to correct the relative amount of genes measured in the ARPE-19 cell line, and the experimental results are shown in FIG. 5.
In general terms: Real-time PCR tracks product formation cycle by cycle.

The subject of the next assay is A2E-BDP in ARPE-19 cells. The assay is described as follows: A2E-BDP removal ability by concentration of other example compounds. The note with it: indicated concentrations; FIG. 13. Type of assay: cell-based, human. Here is the method: as §1, §2
The A2E-fluorescent labeling substance (A2E-BDP) removal ability was evaluated according to Experimental Example 1 (except that the test compound was treated at the indicated concentration).

For another assay, the system named is LC3-II (autophagy flux). The assay is described as follows: Autophagy flux in A2E-accumulated ARPE-19 with or without bafilomycin. The assay is classed as cell-based, human. The note with it: A2E 25 μM 24 h; 10, 25, 50 μM, 12 h; bafilomycin 2 nM 4 h; FIG. 9. Here is the method:
It was measured whether example 17 compound of the present invention increases autophagy flux in the ARPE-19 cell line in which A2E is accumulated. That is, the ARPE-19 cell line was dispensed into a 6-well plate at a concentration of 1×10^5 cells/well and cultured for 24 hours. The cells were treated with A2E at a concentration of 25 μM for 24 hours. The cells were treated with example 17 compound of the present invention at concentrations of 10, 25, and 50 μM for 12 hours each. The method of treating with bafilomycin (2 nM for 4 hours), preparing cell lysate, and measuring LC3-II by Western method was the same as in Experimental Example 8.

For the molecule `C=CCOCc1cc(-c2cc(CC=C)ccc2OC)no1` [Example 17, 3-(5-allyl-2-methoxyphenyl)-5-((allyloxy)methyl)isoxazole], in the assay with ARPE-19 cells (A2E 25 μM x3, compound 10, 25, 50 μM twice, blue light 430 nm, 7500 lux, 30 min, FIG. 3 upper), the “cell death induced by A2E and blue light (microscope)” value is recorded as “cell death was significantly inhibited”. For the same molecule, the “cell viability quantified using Image J (cell death by A2E and blue light)” value with ARPE-19 cells (same model, FIG. 3 lower) is on record as “statistically significantly inhibited”. Besides, the inhibition at 50 µM in assay [1] is ≥ 60%. In the assay with LC3-II (ARPE-19, 10, 25, 50 μM, FIG. 6 graph), the “LC3-II level (Western immunoblotting)” value is “an increase in LC3-II”. Also, the “puncta formation of GFP-LC3 (confocal microscope)” value with LC3-II (GFP-LC3 transfected ARPE-19, 25 μM, FIG. 6 photograph) is listed as “intracellular LC3-II puncta were observed”. In assay [2], the “expression of mRNA of inflammation-related genes (IL-1β, IL-6, and CXCL8)” value is given as “statistically significant reduction”. In addition, the “A2E-BDP removal ability by concentration (amount of A2E)” value in the assay on A2E-BDP in ARPE-19 cells is listed as “concentration-dependent decrease in the amount of A2E”. In addition, in the assay with LC3-II (autophagy flux), the “autophagy flux in A2E-accumulated ARPE-19” value is recorded as “significantly increased the autophagy flux”.

Source of the values: patent US20250214951A1, “3-PHENYLISOXAZOLE DERIVATIVE, AND PHARMACEUTICAL COMPOSITION FOR PREVENTING OR TREATING EYE DISEASE, CONTAINING SAME AS ACTIVE INGREDIENT” (VASTHERA CO., LTD., priority 2022, published 2025).
